Measured values: publication PMC5103216, “Novel Agonist Bioisosteres and Common Structure-Activity Relationships for The Orphan G Protein-Coupled Receptor GPR139” (Scientific Reports, 2016)

Experiments:
Format in all cases: cell-based
[1] = molecular target: T1, M1 receptor (Homo sapiens, UniProt P11229); experiment: cAMP dynamic 2 assay measuring Gs activation in CHO-M1 (control)
T1 construct: host or cells: CHO-k1
T1 sequence (P11229 1-460): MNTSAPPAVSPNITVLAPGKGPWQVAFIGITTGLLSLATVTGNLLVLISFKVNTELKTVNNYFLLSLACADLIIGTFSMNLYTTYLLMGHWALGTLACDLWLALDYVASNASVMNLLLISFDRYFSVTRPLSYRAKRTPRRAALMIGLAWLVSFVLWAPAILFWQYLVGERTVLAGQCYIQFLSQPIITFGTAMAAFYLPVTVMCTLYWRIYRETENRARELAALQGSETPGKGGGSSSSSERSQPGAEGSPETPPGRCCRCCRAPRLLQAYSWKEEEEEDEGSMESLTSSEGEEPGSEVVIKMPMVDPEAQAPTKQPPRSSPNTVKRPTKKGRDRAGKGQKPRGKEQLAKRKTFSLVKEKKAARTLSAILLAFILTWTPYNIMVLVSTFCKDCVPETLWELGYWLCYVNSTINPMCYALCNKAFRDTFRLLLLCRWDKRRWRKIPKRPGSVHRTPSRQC
Method: (§1) The cAMP assay was performed as described in the work by Thomsen et al.[28] with few modifications. Breifly, CHO-139 and CHO-M1 was detached and resuspended to a concentration of 1 million cells/mL. 5 μL 2x concentrated compound (for Gs: +100 μM IBMX and for Gi: +100 μM IBMX +10 μM forskolin (Fsk)) and 5 μL cell suspension (5,000 cells/well) was mixed. The plate was sealed and incubated at room temperature for 30 min. Next, 10 μL detection reagents (lysis buffer containing 2.5% Eu^3+-anti-cAMP antibody and 2.5% cAMP-d2) was added and the plate was incubated for 1 hour at room temperature. The plate was read on an Envision (PerkinElmer, Waltham, MA, USA). The TR-FRET 665 nm/615 nm ratio, which is inversely proportional with the cAMP production, was used to determination the concentration of the cAMP response. […]
Supplementary Figure 1. cAMP dynamic 2 assay measuring Gs activation. 5,000 cells/well of CHO-139 (pink bars) or CHO-M1 (blue bars) cells are
incubated with the indicated compounds for 30 min at room temperature in the presence of 50 µM IBMX. 5 µM and 10 µM forskolin (Fsk) serves as positive
controls. The responses are one representative out of at two independent experiments performed in triplicates. Data points are means ± SD. […]
Data points are means ± SD.

[2] = molecular target: T2, GPR139 (Homo sapiens, UniProt Q6DWJ6); experiment: cAMP dynamic 2 assay measuring Gi activation (forskolin) in CHO-139; details: CHO-139
T2 sequence (Q6DWJ6 1-353): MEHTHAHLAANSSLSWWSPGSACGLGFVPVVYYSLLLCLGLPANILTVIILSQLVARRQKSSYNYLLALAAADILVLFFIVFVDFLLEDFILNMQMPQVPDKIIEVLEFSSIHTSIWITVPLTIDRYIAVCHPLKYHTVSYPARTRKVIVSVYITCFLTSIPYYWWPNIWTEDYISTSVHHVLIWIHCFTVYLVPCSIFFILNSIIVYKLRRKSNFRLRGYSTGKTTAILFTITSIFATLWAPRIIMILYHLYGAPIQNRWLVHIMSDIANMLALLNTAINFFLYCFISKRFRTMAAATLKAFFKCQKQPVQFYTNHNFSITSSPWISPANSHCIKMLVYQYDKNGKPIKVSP
Method: as §1
Supplementary Figure 2. cAMP dynamic 2 assay measuring Gi activation. 5,000 cells/well of CHO-139 (pink bars) or CHO-M1 (blue bars) cells are
incubated with the indicated compounds for 30 min at room temperature in the presence of 50 µM IBMX and 5 uM Fsk (expect “buffer (-Fsk) where only 50
µM IBMX is present). The straight line indicate the level of cAMP upon activation with 5 uM Fsk, and the grey area ±10% of the response. The responses are
one representative out of at two independent experiments performed in triplicates. Data points are means ± SD.

[3] = molecular target: T1, M1 receptor; experiment: IP-One HTRF assay in CHO-M1 (control)
Method: Figure 3 IP-One HTRF® assay measuring Gq activation. Concentration-response curves of 1a, 7c (racemic), L-Trp, L-Phe, DL43, DL126, DL24, DL22, DL132 and DL130 on (A) CHO-139 and (B) CHO-M1 in the IP-One assay (final conc of LiCl = 20 mM). The dotted line represent the [IP1] response from (A) 10 μM 1a and (B) 1 μM carbachol, which is an agonist for the muscarinic acethylcholine receptor M1 that activates the Gq coupled pathway. The graphs are means ± SEM based on three independent experiments performed in triplicates.
The IP-One assay was performed as described in the work by Thomsen et al.[28], with few modifications. Breifly, CHO-139 and CHO-M1 were detached and re-suspended to a concentration of 10 million cells/mL. 5 μL 2x concentrated compound (+40 mM LiCl) and 5 μL cell suspension (50,000 cells/well) was mixed. The plate was sealed and incubated at 37 °C for 1 hour. Next, 10 μL detection reagents (lysis buffer containing 2.5% Eu^3+-anti-IP1 antibody and 2.5% IP1-d2) was added and the plate was incubated for 1 hour at room temperature. The plate was read on an Envision (PerkinElmer, Waltham, MA, USA). The time resolved-fluorescence resonance energy transfer (TR-FRET) 665 nm/615 nm ratio, which is inversely proportional to the inositol monophosphate (IP1) accumulation, was used to determine the concentration of the IP1 response.

| SMILES | IP1 response in CHO-M1 cells [3] | Gs response (cAMP) [1] | Inhibition of the cAMP response induced by 5 μM forskolin (Gi), in words [2] |
| --- | --- | --- | --- |
| COc1cc(OC)cc(C(=O)NNC(=O)C2CCCc3ccccc32)c1 (stereo not drawn) [DL24] | no response is seen in CHO-M1 cells | None of the tested compounds induced Gs response | none of the tested compounds were able to inhibit the cAMP response |
| CCn1c(C)nc2cc(C(=O)NNC(=O)Cc3cccc4ccccc34)ccc21 [DL43] | no response is seen in CHO-M1 cells | None of the tested compounds induced Gs response | none of the tested compounds were able to inhibit the cAMP response |
| O=C(CNC(=O)c1ccc2c(c1)OCO2)NC1CCSc2ccc(F)cc21 (stereo not drawn) [DL130] | no response is seen in CHO-M1 cells | None of the tested compounds induced Gs response | none of the tested compounds were able to inhibit the cAMP response |

Continued, in another order:

| IP1 response in CHO-M1 cells [3] | SMILES | Gs response (cAMP) [1] | Inhibition of the cAMP response induced by 5 μM forskolin (Gi), in words [2] |
| --- | --- | --- | --- |
| no response is seen in CHO-M1 cells | O=C(CN1CCCc2ccccc21)NNC(=O)c1ccc2c(c1)OCO2 [DL22] | None of the tested compounds induced Gs response | none of the tested compounds were able to inhibit the cAMP response |
| no response is seen in CHO-M1 cells | O=C(Cc1cccc2ccccc12)NNC(=O)c1ccc2c(c1)OCO2 [DL126] | None of the tested compounds induced Gs response | none of the tested compounds were able to inhibit the cAMP response |
| no response is seen in CHO-M1 cells | O=C(NCC(=O)N1CCCC1c1ccccc1)c1ccc2c(c1)OCO2 (stereo not drawn) [DL132] | None of the tested compounds induced Gs response | none of the tested compounds were able to inhibit the cAMP response |
